Our source for the Activity values is ChEMBL document CHEMBL1150229, “Serrulatane diterpenes with antimycobacterial activity isolated from the West Indian sea whip Pseudopterogorgia elisabethae” (2001).

The source made the active and inactive calls. The calls are words filed in the database; no cut-off is given here.

The subject of test [1] is Mycobacterium tuberculosis. The test is described as follows: Antitubercular activity against Mycobacterium tuberculosis H37Rv at 12.5 ug/ml. In kind it is functional.
Test [2] has as its system NCI60. The test is described as follows: Cytotoxicity against human NCI60 cells. In kind it is functional, cell-based.
Test [3] concerns Mycobacterium tuberculosis. In words: Antitubercular activity against Mycobacterium tuberculosis H37Rv at 6.25 ug/ml. It is filed as functional.

`CC(C)=CCC[C@H](C)[C@H]1CC[C@H](C)c2ccc(C)cc21` [EROGORGIAENE] displayed an Activity in test [1] of 96%.

In test [1], `CC(C)=C[C@@H]1C[C@H](C)[C@H]2CC[C@H](C)c3c2c1c(C)c1ncoc31` [PSEUDOPTEROXAZOLE] showed an Activity of 97%.

Compound `CC(C)=CCC[C@H](C)[C@H]1CC[C@H](C)c2c1cc(C)c1ncoc21` had an Activity in test [1] of 66%.

As to `CC(C)=CCC[C@H](C)[C@H]1CC[C@H](C)c2cc(O)c(C)cc21`, the result in test [2] was inactive. Further, the Activity in test [3] is given as 77%.
